Tests used:
[1] = test system: Plasmopara viticola; assay: Plasmopara test (grapevines) / preventive; type: in vivo; settings: preventive spray, 10 ppm of active ingredient, evaluated 6 days after inoculation
Procedure: Plasmopara Test (Grapevines)/Preventive
Solvent: 24.5 parts by weight of acetone • 24.5 parts by weight of dimethylacetamide Emulsifier: 1 part by weight of alkylaryl polyglycol ether
To produce a suitable preparation of active compound, 1 part by weight of active compound is mixed with the stated amounts of solvent and emulsifier, and the concentrate is diluted with water to the desired concentration.
To test for preventive activity, young plants are sprayed with the preparation of active compound at the stated rate of application. After the spray coating has dried on, the plants are inoculated with an aqueous spore suspension of Plasmopara viticola and then remain for 1 day in an incubation cabinet at approximately 20° C. and a relative atmospheric humidity of 100%. The plant is subsequently placed for 4 days in a greenhouse at approximately 21° C. and a relative atmospheric humidity of approximately 90%. The plants are then misted and placed for 1 day in an incubation cabinet.
The test is evaluated 6 days after the inoculation. 0% means an efficacy which corresponds to that of the untreated control, while an efficacy of 100% means that no disease is observed.

[2] = logP(HCOOH) by HPLC; type: physicochemical; settings: for log p: HPLC on reversed phase columns, pH 2.7, 0.1% formic acid in water / acetonitrile, linear gradient 10% to 95% acetonitrile, EEC directive 79/831 Annex V.A8
[3] = test system: Phytophthora infestans; type: in vivo; settings: tomato plants, preventive spray, 100 ppm of active ingredient, evaluated 7 days after inoculation
[4] = test system: Pythium ultimum; assay: Pythium test (cotton) / seed treatment; type: in vivo; settings: 10 g/dt seed of active ingredient, emerged seedlings counted after 7 days in greenhouse
Procedure: Pythium Test (Cotton)/Seed Treatment
The test is performed under greenhouse conditions.
Cotton seeds, treated with the active compound or compound combinations, solved in N-methyl-2-pyrrolidon and diluted with water to the desired dosages, were sown in 6*6 cm pots containing 4 cm of a 1:1 mix of steamed field soil and sand.
Perlite was incubated with mycelium fragments of Pythium ultimum. 1 ml of infected perlite was scattered between the treated cotton seeds. Seeds were then covered by light expanded clay aggregate. Pots were incubated in the greenhouse 7 days at 20° C. and 80% relative humidity.
Assessment consisted of counting of emerged seedlings. 0% means an efficacy which corresponds to that of the control, while an efficacy of 100% means that all seedlings have emerged.

SMILES: C=CCCCOCC(=O)Nc1nc(CON=C(c2ccccc2)c2nnnn2C)cs1 [Example 6]
- Efficacy % [1]: 90%
- log p [2]: 3.52
- Efficacy % [3]: 95%

SMILES: CON=C(C(=O)Nc1nc(CON=C(c2ccccc2)c2nnnn2C)cs1)c1ccccc1Cl [Example 10]
- Efficacy % [1]: 90%
- Efficacy % [4]: 88%
- log p [2]: 3.87
- Efficacy % [3]: 95%

SMILES: Cn1nnnc1C(=NOCc1csc(NC(=O)COC2CCCCC2)n1)c1ccccc1 [Example 12]
- Efficacy % [1]: 94%
- Efficacy % [4]: 100%
- log p [2]: 3.85
- Efficacy % [3]: 92%

SMILES: Cc1nnnn1C(=NOCc1cccc(NC(=O)OC(C)CC2CC2)n1)c1ccccc1 (stereo not shown) [Example 14]
- Efficacy % [1]: 94%
- log p [2]: 4.24
- Efficacy % [3]: 95%

SMILES: Cc1nnnn1C(=NOCc1cccc(NC(=O)OCC2CCCCC2)n1)c1ccccc1 [Example 16]
- Efficacy % [1]: 85%
- log p [2]: 4.8
- Efficacy % [3]: 95%

SMILES: Cc1nnnn1C(=NOCc1cccc(NC(=O)OCCCC2CC2)n1)c1ccccc1 [Example 18]
- Efficacy % [1]: 72%
- log p [2]: 4.29
- Efficacy % [3]: 100%

SMILES: Cc1nnnn1C(=NOCc1cccc(NC(=O)OCC2CCCC2)n1)c1ccccc1 [Example 20]
- Efficacy % [1]: 97%
- log p [2]: 4.41
- Efficacy % [3]: 95%

SMILES: CC(=NOCC(=O)Nc1nc(CON=C(c2ccccc2)n2nnnc2C)cs1)c1ccccc1 [Example 39]
- Efficacy % [4]: 85%
- log p [2]: 3.79
- Efficacy % [3]: 98%

SMILES: C=CCOC(C)C(=O)Nc1cccc(CO/N=C(/c2ccccc2)c2nnnn2C)n1 (stereo not shown) [Example 42]
- Efficacy % [1]: 70%
- log p [2]: 3.35
- Efficacy % [3]: 98%

SMILES: C=CCOC(C)C(=O)Nc1nc(CO/N=C(/c2ccccc2)n2nnnc2C)cs1 (stereo not shown) [Example 45]
- Efficacy % [1]: 84%
- log p [2]: 3.19
- Efficacy % [3]: 95%

SMILES: C=CCCOC(C)C(=O)Nc1nc(CO/N=C(/c2ccccc2)c2nnnn2C)cs1 (stereo not shown) [Example 46]
- Efficacy % [1]: 79%
- log p [2]: 3.48
- Efficacy % [3]: 98%

SMILES: C=CCCOCC(=O)Nc1nc(CO/N=C(/c2ccccc2)c2nnnn2C)cs1 [Example 47]
- Efficacy % [1]: 82%
- log p [2]: 3.19
- Efficacy % [3]: 95%

SMILES: C=CCOC(C)C(=O)Nc1nc(CO/N=C(/c2ccccc2)c2nnnn2C)cs1 (stereo not shown) [Example 48]
- Efficacy % [1]: 74%
- log p [2]: 3.13
- Efficacy % [3]: 100%

SMILES: C#CCOC(C)C(=O)Nc1nc(CO/N=C(/c2ccccc2)c2nnnn2C)cs1 (stereo not shown) [Example 51]
- Efficacy % [1]: 96%
- Efficacy % [4]: 100%
- log p [2]: 2.82
- Efficacy % [3]: 95%

SMILES: C#CCOC(C)C(=O)Nc1nc(CO/N=C(/c2ccccc2)n2nnnc2C)cs1 (stereo not shown) [Example 53]
- Efficacy % [1]: 95%
- Efficacy % [4]: 100%
- log p [2]: 2.92
- Efficacy % [3]: 95%

SMILES: Cn1nnnc1C(=NOCc1csc(NC(=O)OCCC2CCCCC2)n1)c1ccccc1 [Example 62]
- Efficacy % [1]: 88%
- log p [2]: 4.66
- Efficacy % [3]: 100%

SMILES: Cn1nnnc1C(=NOCc1csc(NC(=O)OCC2CC2)n1)c1ccccc1 [Example 63]
- Efficacy % [1]: 93%
- log p [2]: 3.23
- Efficacy % [3]: 100%

SMILES: CC(CC1CC1)OC(=O)Nc1nc(CON=C(c2ccccc2)c2nnnn2C)cs1 (stereo not shown) [Example 64]
- Efficacy % [1]: 94%
- log p [2]: 3.83
- Efficacy % [3]: 95%

SMILES: Cc1nnnn1C(=NOCc1csc(NC(=O)COC2CCCCC2)n1)c1ccccc1 [Example 78]
- Efficacy % [1]: 79%
- log p [2]: 3.89
- Efficacy % [3]: 100%

SMILES: Cn1nnnc1C(=NOCc1csc(NC(=O)COC2CCCC2)n1)c1ccccc1 [Example 84]
- Efficacy % [1]: 90%
- log p [2]: 3.53
- Efficacy % [3]: 98%

SMILES: Cc1nnnn1C(=NOCc1csc(NC(=O)COC2CCCC2)n1)c1ccccc1 [Example 86]
- Efficacy % [1]: 81%
- log p [2]: 3.6
- Efficacy % [3]: 95%

SMILES: Cc1nnnn1C(=NOCc1csc(NC(=O)COC2CCCCCC2)n1)c1ccccc1 [Example 89]
- Efficacy % [1]: 73%
- log p [2]: 4.3
- Efficacy % [3]: 100%

SMILES: Cn1nnnc1C(=NOCc1csc(NC(=O)COC2CCCCCC2)n1)c1ccccc1 [Example 91]
- Efficacy % [1]: 94%
- Efficacy % [4]: 96%
- log p [2]: 4.23
- Efficacy % [3]: 100%

SMILES: CC(OC1CCCCC1)C(=O)Nc1nc(CON=C(c2ccccc2)c2nnnn2C)cs1 (stereo not shown) [Example 92]
- Efficacy % [1]: 93%
- log p [2]: 4.14
- Efficacy % [3]: 100%

SMILES: Cc1nnnn1C(=NOCc1csc(NC(=O)C(C)OC2CCCC2)n1)c1ccccc1 (stereo not shown) [Example 93]
- Efficacy % [1]: 91%
- log p [2]: 3.87
- Efficacy % [3]: 100%

SMILES: Cc1nnnn1C(=NOCc1csc(NC(=O)C(C)OC2CCCCC2)n1)c1ccccc1 (stereo not shown) [Example 94]
- log p [2]: 4.21
- Efficacy % [3]: 93%

SMILES: CC(OC1CCCCCC1)C(=O)Nc1nc(CON=C(c2ccccc2)c2nnnn2C)cs1 (stereo not shown) [Example 95]
- log p [2]: 4.51
- Efficacy % [3]: 95%

SMILES: Cc1nnnn1C(=NOCc1csc(NC(=O)C(C)OC2CCCCCC2)n1)c1ccccc1 (stereo not shown) [Example 96]
- log p [2]: 4.58
- Efficacy % [3]: 98%

SMILES: CC(OC1CCCC1)C(=O)Nc1nc(CO/N=C(/c2ccccc2)c2nnnn2C)cs1 (stereo not shown) [Example 97, 2-(cyclopentyloxy)-N-{4-[({[(Z)-(1-methyl-1H-tetrazol-5-yl)(phenyl)methylene]amino}oxy)methyl]-1,3-thiazol-2-yl}propanamide]
- chromatographic logP ([2]; reversed phase HPLC column, pH 2.7, HCOOH, read-out: logP(HCOOH)): 3.8
- Efficacy % [3]: 95%

SMILES: CC(OC1CCCC1)C(=O)Nc1cccc(CON=C(c2ccccc2)c2nnnn2C)n1 (stereo not shown) [Example 98]
- log p [2]: 4.11
- Efficacy % [3]: 98%

SMILES: CC(OC1CCCCC1)C(=O)Nc1cccc(CON=C(c2ccccc2)c2nnnn2C)n1 (stereo not shown) [Example 99]
- log p [2]: 4.49
- Efficacy % [3]: 90%

SMILES: C=C=CCCC(=O)Nc1cccc(CON=C(c2ccccc2)c2nnnn2C)n1 [Example 101]
- Efficacy % [1]: 81%
- Efficacy % [4]: 100%
- log p [2]: 3.21
- Efficacy % [3]: 93%

SMILES: C=C=CCCC(=O)Nc1nc(CON=C(c2ccccc2)c2nnnn2C)cs1 [Example 102]
- Efficacy % [1]: 83%
- log p [2]: 3.11
- Efficacy % [3]: 80%

SMILES: CC1CCC(C(C)C)C(OCC(=O)Nc2nc(CON=C(c3ccccc3)c3nnnn3C)cs2)C1 (stereo not shown) [Example 107]
- log p [2]: 5.39
- Efficacy % [3]: 95%

SMILES: CC1CCC(C(C)C)C(OCC(=O)Nc2nc(CON=C(c3cccc(F)c3)c3nnnn3C)cs2)C1 (stereo not shown) [Example 109]
- log p [2]: 5.47
- Efficacy % [3]: 84%

Reference: patent publication US20130012546A1 (priority 2009, published 2013)
